Activity calls are given as the source filed them. Cut-off read from the data, not from the text of the source, for most assays here: actives have a measured EC50 and inactives only a lower limit.
Key:
[1] = target: T1, Heat shock factor protein 1 (Mus musculus, UniProt P38532); assay: HSF1 potentiators in luciferase reporter cells, confirmation, cell-based, NIH3T3, luminescence, dose retest (AID 435004); type: functional;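 note: stress induced by proteasome inhibitor MG132 added 30 min after compound; luciferase reporter driven by HSF1 response element in NIH3T3 cells; actives raise luminescence as potentiators of the MG132 stress response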
T1 sequence (P38532 whole entry): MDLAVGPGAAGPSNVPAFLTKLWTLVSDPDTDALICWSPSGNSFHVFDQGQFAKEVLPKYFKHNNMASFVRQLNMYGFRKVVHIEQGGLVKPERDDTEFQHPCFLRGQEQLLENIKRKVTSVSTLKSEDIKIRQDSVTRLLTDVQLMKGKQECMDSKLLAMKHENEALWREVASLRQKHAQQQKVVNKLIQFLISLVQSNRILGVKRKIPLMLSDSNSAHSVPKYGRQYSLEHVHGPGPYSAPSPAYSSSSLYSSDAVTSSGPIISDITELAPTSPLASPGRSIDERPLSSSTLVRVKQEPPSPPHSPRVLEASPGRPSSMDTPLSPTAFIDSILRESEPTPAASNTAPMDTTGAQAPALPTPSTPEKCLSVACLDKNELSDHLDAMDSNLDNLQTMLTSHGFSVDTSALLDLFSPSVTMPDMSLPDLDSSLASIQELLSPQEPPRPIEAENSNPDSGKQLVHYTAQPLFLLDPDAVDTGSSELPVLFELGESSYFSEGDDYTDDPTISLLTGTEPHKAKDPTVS

[2] = target: T2, Rac GTPase-activating protein 1 (Homo sapiens, UniProt Q9H0H5); assay: MgcRacGAP GTPase-activating activity inhibitors, confirmation, biochemical, ADP Hunter fluorescence, primary and confirmatory (AID 624330); type: functional
T2 sequence (Q9H0H5 whole entry): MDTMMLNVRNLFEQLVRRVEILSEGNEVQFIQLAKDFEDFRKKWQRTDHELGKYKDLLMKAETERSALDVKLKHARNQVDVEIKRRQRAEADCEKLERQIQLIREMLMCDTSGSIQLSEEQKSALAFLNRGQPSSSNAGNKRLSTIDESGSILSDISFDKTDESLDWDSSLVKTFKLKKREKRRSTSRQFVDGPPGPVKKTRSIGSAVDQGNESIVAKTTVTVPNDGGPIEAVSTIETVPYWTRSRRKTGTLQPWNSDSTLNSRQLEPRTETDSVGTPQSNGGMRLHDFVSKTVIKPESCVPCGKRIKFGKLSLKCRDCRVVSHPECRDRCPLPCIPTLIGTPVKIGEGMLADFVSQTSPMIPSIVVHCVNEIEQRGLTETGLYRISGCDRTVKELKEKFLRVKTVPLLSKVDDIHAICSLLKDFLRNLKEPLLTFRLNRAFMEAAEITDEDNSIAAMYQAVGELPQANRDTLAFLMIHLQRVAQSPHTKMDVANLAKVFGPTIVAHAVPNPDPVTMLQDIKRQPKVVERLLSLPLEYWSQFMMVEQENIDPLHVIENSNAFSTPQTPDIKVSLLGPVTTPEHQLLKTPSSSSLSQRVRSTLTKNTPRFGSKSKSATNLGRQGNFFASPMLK

[3] = HEp-2 cell cytotoxicity, dose response, cytotoxicity control for RSV inhibitor project, HTS (AID 2410); type: functional; settings: human respiratory syncytial virus
[4] = P. falciparum Dd2 growth inhibitors, dose response, SYBR Green, cherry-picked samples (AID 1159567); type: functional, cell-based
Streptokinase A = target: T3, Streptokinase A (Streptococcus pyogenes serotype M1, UniProt P10520); assay: S. pyogenes streptokinase expression inhibitors, potency, dose response, plasminogen activation absorbance, OD405 (AID 1914); type: functional, Streptococcus pyogenes M1 GAS;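 note: secreted streptokinase activity via plasminogen activation per viability signal from cell pellet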
T3 sequence (P10520 whole entry): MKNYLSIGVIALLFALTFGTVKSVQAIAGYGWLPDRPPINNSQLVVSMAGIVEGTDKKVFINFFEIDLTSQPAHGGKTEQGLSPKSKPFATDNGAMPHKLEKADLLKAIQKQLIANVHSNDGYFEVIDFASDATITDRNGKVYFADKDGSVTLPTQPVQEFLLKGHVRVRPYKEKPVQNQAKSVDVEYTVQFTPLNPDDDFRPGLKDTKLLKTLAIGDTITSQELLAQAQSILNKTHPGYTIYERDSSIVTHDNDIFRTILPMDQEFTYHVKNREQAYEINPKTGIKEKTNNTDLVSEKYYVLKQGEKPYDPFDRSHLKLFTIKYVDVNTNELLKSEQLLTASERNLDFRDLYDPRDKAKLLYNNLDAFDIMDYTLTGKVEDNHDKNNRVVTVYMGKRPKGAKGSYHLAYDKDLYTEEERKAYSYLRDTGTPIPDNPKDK

Cytochrome P450 1A2 = target: T4, Cytochrome P450 1A2 (Homo sapiens, UniProt P05177);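 note: PubChem cytochrome P450 panel assay, CYP1A2 panel member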
T4 sequence (P05177 whole entry): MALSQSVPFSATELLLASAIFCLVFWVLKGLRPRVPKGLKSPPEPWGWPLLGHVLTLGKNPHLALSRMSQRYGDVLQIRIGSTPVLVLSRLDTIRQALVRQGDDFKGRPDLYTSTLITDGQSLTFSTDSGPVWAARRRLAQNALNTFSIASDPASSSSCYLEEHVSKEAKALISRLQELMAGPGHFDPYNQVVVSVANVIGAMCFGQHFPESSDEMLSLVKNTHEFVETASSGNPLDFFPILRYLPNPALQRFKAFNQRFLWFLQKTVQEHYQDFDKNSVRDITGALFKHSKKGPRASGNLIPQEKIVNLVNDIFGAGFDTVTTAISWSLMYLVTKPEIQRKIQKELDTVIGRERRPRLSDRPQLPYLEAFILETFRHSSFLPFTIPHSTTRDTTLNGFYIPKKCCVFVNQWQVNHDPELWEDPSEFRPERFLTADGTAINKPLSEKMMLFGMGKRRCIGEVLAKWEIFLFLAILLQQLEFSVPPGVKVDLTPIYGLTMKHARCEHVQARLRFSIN

Streptococcus = assay: Group A Streptococcus viability loss, dose response, counter-screen for streptokinase expression inhibitor project, luminescence, BacTiterGlo (AID 1915); type: functional, organism-based;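 note: potency for reduction of bacterial viability or growth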
[5] = system: Streptococcus sp. 'group A'; assay: growth inhibition of control SK(-) GAS strain, dose response, counter-screen for streptokinase expression inhibitor project, luminescence, kanamycin, BacTiterGlo, confirmation (AID 1900); type: functional, organism-based
[6] = Luminescence Cell-Based Dose Retest to Confirm Inhibitors of Cancer Stem Cells. [Related pubchem assays (depositor defined):AID2717, AID2721]; type: functional; settings: Homo sapiens
[7] = cytotoxicity toward NIH3T3 fibroblasts, dose response, counter-screen, cell-based, ATP luminescence, mouse fibroblasts (AID 2010); type: functional;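 note: cells exposed to compound for about 90 hours before reading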
[8] = inhibitors of intracellular T. cruzi replication, confirmation, NIH3T3 host cells, beta-gal luminescence (AID 2044); type: functional, cell-based;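 note: intracellular parasites grown in NIH/3T3 mouse fibroblasts as host cells; luminescent beta-galactosidase reporter signal from transgenic T. cruzi replicating inside host cells; inhibitors lower the luminescence signal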
[9] = NIH-3T3 fibroblast cytotoxicity, dose response, cytotoxicity control, cell-based, fluorescence, Alamar Blue, secondary assay (AID 2327); type: functional;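 note: NIH-3T3 mouse fibroblasts cultured with fluconazole at 8 µg/mL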

## CCOc1ccc(CNC(=O)c2cccc(NC(=O)C3=C(C)OCCS3)c2)cc1
[1]
  EC50: > 260 µM (inactive)

## O=C(Cn1cc(C(F)(F)F)ccc1=O)N/N=C/c1ccc(O)cc1
[2]
  IC50: 95.1 µM (active)

## c1ccc(-c2cc(-c3ccc(N4CCOCC4)cc3)nc3ccccc23)cc1
[3]
  CC50: > 50 µM (active)

## Cc1cccc(NC(=O)CCc2c(C)nn(-c3ccc(N4CCCCC4)nn3)c2C)c1
[1]
  EC50: > 260 µM (inactive)

## COc1cccc(CN2[C@@H](CO)[C@H](c3ccccc3)C23CN(C(=O)C2CCOCC2)C3)c1
[4]
  AC50: 7.03 µM (active)

## Cc1ccc(C)c(-c2cc(C(=O)Nc3sc(C)c(C)c3C(N)=O)c3ccccc3n2)c1
[3]
  CC50: 9.97 µM (active)
Streptokinase A
  EC50: 4.64 µM (active)
Cytochrome P450 1A2
  AC50: 3.16 µM (inconclusive)
Streptococcus
  EC50: > 150 µM (not active)
[5]
  EC50: 2.81 µM (active)

## CCOc1cc(CNc2ccc3c(c2)OCCO3)cc(Br)c1OCC(N)=O
[2]
  IC50: 99.3 µM (active)

## CCn1cc(C2=NC(c3ccccc3)CO2)c2ccccc21 (stereo unspecified)
[3]
  CC50: 14.8 µM (active)

## CC(C)n1nc(C(=O)Nc2nnc(SCc3c(Cl)cccc3Cl)s2)c2ccccc2c1=O
Streptokinase A
  EC50: > 150 µM (not active)
Streptococcus
  EC50: 116 µM (active)
[5]
  EC50: 2.09 µM (active)

## O=C(Nc1ccccn1)c1ccc2ccccc2c1O
[2]
  IC50: 73 µM (active)

## Cc1ccccc1C(=O)Nc1ccc(N2CCCC2)cc1
[2]
  IC50: 79.7 µM (active)

## COc1cc(/C=C/C(C)=NNc2ccccc2)ccc1O
[2]
  IC50: 51.9 µM (active)

## Cc1ccc(OCC(=O)N2CCN(CC3CC4C=CC3C4)CC2)cc1 (stereo unspecified)
[2]
  IC50: 293 µM (active)

## COc1ccccc1C(=O)NCCCNC(=O)c1ccccn1
[1]
  EC50: > 260 µM (inactive)

## C[C@H](CCC(=O)O)[C@H]1CC[C@H]2[C@@H]3CC[C@@H]4CC(=O)CC[C@]4(C)[C@H]3CC(=O)[C@]12C
[1]
  EC50: > 260 µM (inactive)

## COC(=O)/C(C#N)=C/c1c(N2CCCCCC2)nc2c(C)cccn2c1=O
[1]
  EC50: > 260 µM (inactive)

## O=C(NNc1cccc(Cl)n1)Nc1ccc(Cl)cc1
[1]
  EC50: > 260 µM (inactive)

## Cc1ccc2c(c1)/C(=C/c1ccc(F)cc1)C(=O)N2
[1]
  EC50: > 260 µM (inactive)

## CCC(=O)N1CC2(C1)CN(Cc1cccc(Cl)c1)[C@H](CO)c1c2c2ccc(OC)cc2n1C
[4]
  AC50: 10.5 µM (active)

## CN(C)CCCn1c(SCc2ccc(Cl)cc2)nnc1-c1ccncc1
[2]
  IC50: 121 µM (active)

## O=[N+]([O-])c1ccc(-c2csc(Nc3ccccc3)[n+]2Cc2ccccc2)cc1
[1]
  EC50: 131 µM (active)

## OC[C@H]1[C@@H](c2ccc(-c3cccnc3)cc2)[C@H]2CN(CC3CC3)CCCCN21
[4]
  AC50: 6.52 µM (active)

## O=C1N=C(Nc2ccc(Cl)cc2)SC1Cc1cccc(Cl)c1Cl (stereo unspecified)
Streptokinase A
  EC50: 131 µM (active)
[6]
  AC50: 13.2 µM (active)
Streptococcus
  EC50: > 150 µM (not active)
[5]
  EC50: 3.91 µM (active)

## Cc1ccccc1[C@@]1(C)ON(c2ccccc2C(F)(F)F)C1=O
[3]
  CC50: 21.9 µM (active)

## CC(C)NC(=O)N1CCCCN2[C@H](CO)[C@@H](c3ccc(C#C[C@H](C)O)cc3)[C@@H]2C1
[4]
  AC50: 19.5 µM (active)

## Cc1cccc(C)c1NC(=S)N/N=C/c1ccc(OCCC(C)C)cc1
Streptokinase A
  EC50: 16.9 µM (active)
[7]
  EC50: > 60 µM (inconclusive)
[8]
  EC50: 2.02 µM (active)
Streptococcus
  EC50: 21.9 µM (active)
[5]
  EC50: 8.34 µM (active)

## CC(c1ccc(F)cc1)n1c(S)nnc1Cn1ncc2ccccc2c1=O (stereo unspecified)
[1]
  EC50: > 260 µM (inactive)

## CCC(=O)N1CCC2(CC1)CN(Cc1ccc(Cl)cc1)[C@H](CO)c1[nH]c3cc(OC)ccc3c12
[4]
  AC50: 3.07 µM (active)

## O=C(CCn1c(=O)oc2ccccc21)Nc1ccccc1
[1]
  EC50: > 260 µM (inactive)

## COc1ccc2c3c([nH]c2c1)[C@@H](CO)N(Cc1ccccc1Cl)CC31CCN(C(=O)C2CC2)CC1
[4]
  AC50: 5.82 µM (active)

## CN(C)c1ccc(C=Cc2cnccn2)cc1
[2]
  IC50: 38.6 µM (active)

## COc1cccc(CN2[C@@H](CO)[C@H](c3ccccc3)C23CN(C(=O)C2CCCC2)C3)c1
[4]
  AC50: 5.77 µM (active)

## CCC(C)N1C(=O)/C(=C/NNc2ccccc2)C(=O)NC1=S (stereo unspecified)
Streptokinase A
  EC50: > 150 µM (not active)
[6]
  AC50: 2.24 µM (active)
Streptococcus
  EC50: > 150 µM (not active)
[5]
  EC50: > 150 µM (not active)

## Cc1ccc(-c2cnc3cc(C)nn3c2)cc1
[1]
  EC50: > 260 µM (inactive)

## O=C(c1ccc(N2CCN(C3CC(=O)N(Cc4cccs4)C3=O)CC2)cc1)c1cccnc1 (stereo unspecified)
[3]
  CC50: 24.4 µM (active)

## CNC[C@H]1Oc2ncc(-c3ccc(OC)cc3)cc2C(=O)N([C@H](C)CO)C[C@H]1C
[4]
  AC50: 7.75 µM (active)

## CCC1C(=NO)C(CC)C(c2ccccc2)NC1c1ccccc1 (stereo unspecified)
Streptokinase A
  EC50: 13.3 µM (active)
[1]
  EC50: > 260 µM (inactive)
Streptococcus
  EC50: 11.8 µM (active)
[5]
  EC50: 4.07 µM (active)

## Cc1ccc(-n2nc3c(=O)n(CCCC(=O)NCCc4ccccc4C)nc(C)c3c2C)cc1
[3]
  CC50: > 50 µM (active)

## CCOC(=O)N1CCC(/N=c2\c(O)c(O)\c2=N/c2cccc(CC)c2)CC1
[3]
  CC50: 39.3 µM (active)

## Cc1ccc(Cn2nnc3c(O)nc(C4CCN(S(=O)(=O)c5ccc(C)cc5)CC4)nc32)cc1
[3]
  CC50: 13.6 µM (active)
[9]
  EC50: > 150 µM (inactive)

## CO[C@H]1CN(C)C(=O)c2ccc(NC(=O)c3cccc(Oc4ccccc4)c3)cc2OC[C@@H](C)NC[C@H]1C
[4]
  AC50: 7.72 µM (active)

## CCCC(O)(c1ccc(Br)cc1)C(CN1CCOCC1)c1ccc(Cl)cc1 (stereo unspecified)
Streptokinase A
  EC50: 12.1 µM (active)
Streptococcus
  EC50: 72.1 µM (active)
[5]
  EC50: 7.94 µM (active)

## CCOC(=O)c1c(C)[nH]c(C(=O)CN2CCN(CC)CC2)c1C
[2]
  IC50: 60.6 µM (active)

## Cc1cccc(NC(=O)c2[nH]cnc2C(=O)N[C@@H](Cc2ccccc2)C(=O)OCc2ccccc2)c1
[3]
  CC50: 46.3 µM (active)
